This note sets out measurements from PubChem BioAssay (NCI).

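Where inhibition never reached the appropriate level, the endpoint shown equals the highest concentration tested. Otherwise, values were interpolated linearly from a five-concentration, 48-hour dose response in 96-well plates. Abbreviation: GI50, concentration required for 50% inhibition of growth. TGI denotes the concentration required for complete inhibition of growth.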 Where a SMILES comes first, the peptide text is derived from it. The star is where a group is joined. Ethyl(2-NMe3+) = C[N+](C)(C)CC*; Boc = CC(C)(C)OC(=O)*

Some test systems named below: EKVX NSCLC; K-562 leukemia; SR leukemia; SK-MEL-5 melanoma; HS 578T breast; HT29 colon; A549 NSCLC; ACHN renal; OVCAR-3 ovarian.
What all share (test): DTP human tumour cell line panel, 48 h

Regarding `O=C(Cc1ccc(Cl)cc1)Nc1ccc2oc(-c3ccccc3)nc2c1`, the TGI with EKVX NSCLC, in the experiment on K-562 leukemia, in the experiment with SR leukemia, in the experiment with SK-MEL-5 melanoma, in the experiment on HS 578T breast and in the experiment with HT29 colon was greater than 100 µM throughout. Moreover, the TGI in the experiment with A549 NSCLC, with ACHN renal and with OVCAR-3 ovarian was greater than 100 µM in each case.

Consider `Cc1c(Cl)c(S(N)(=O)=O)cc2c1NC=NS2(=O)=O`, for which the TGI with EKVX NSCLC, in the experiment on K-562 leukemia, with SK-MEL-5 melanoma, in the experiment with HS 578T breast, with HT29 colon and with A549 NSCLC was greater than 100 µM each time. The concentration for total growth inhibition (TGI) with ACHN renal and in the experiment with OVCAR-3 ovarian was greater than 100 µM throughout.

Consider `CC(C)(C)NCC(O)c1ccc(O)c(CO)n1` (stereo unspecified), for which the TGI in the experiment with EKVX NSCLC, with SR leukemia, with SK-MEL-5 melanoma, with HS 578T breast, in the experiment with HT29 colon and in the experiment with A549 NSCLC was greater than 100 µM in each case. Further, the TGI in the experiment on ACHN renal and with OVCAR-3 ovarian was greater than 100 µM each time.

As for `CC(=O)c1cccc(Nc2nc3ccc(Cl)cc3c3[nH]c4ccccc4c23)c1`, the TGI (in general, the concentration giving total growth inhibition) in the experiment with EKVX NSCLC was 14.9 µM; with K-562 leukemia, greater than 56.7 µM; in the experiment on SR leukemia it was greater than 100 µM; in the experiment with SK-MEL-5 melanoma it was 17 µM; in the experiment with HS 578T breast, 66.4 µM; in the experiment with HT29 colon, 48.5 µM. In addition, the TGI in the experiment on A549 NSCLC turned out to be 8.45 µM; in the experiment with ACHN renal, 40.6 µM; with OVCAR-3 ovarian, 8.16 µM. Also, in the experiment on SR leukemia, the GI50 – broadly, the concentration giving 50% growth inhibition – is 4.21 µM.

As for `Oc1ccc(Cc2nccc3cc(O)c(O)cc23)cc1O`, the TGI was greater than 100 µM in the experiment on EKVX NSCLC; greater than 100 µM with K-562 leukemia; 96.8 µM in the experiment with SR leukemia; greater than 100 µM in the experiment on SK-MEL-5 melanoma; greater than 100 µM with HS 578T breast; greater than 100 µM in the experiment on HT29 colon. The TGI in the experiment on A549 NSCLC, with ACHN renal and in the experiment on OVCAR-3 ovarian was greater than 100 µM each time.

Regarding `C/C(=N\NC(=S)N1CCN(C)CC1)c1nc2ncccc2[nH]1`, the TGI with EKVX NSCLC, with K-562 leukemia, with SK-MEL-5 melanoma, with HS 578T breast, with HT29 colon and with A549 NSCLC was greater than 100 µM in each case. Besides, the TGI with ACHN renal and in the experiment on OVCAR-3 ovarian was greater than 100 µM throughout.

As for `O=C(NNCc1ccco1)c1cc2ccccc2[nH]1`, the TGI in the experiment with EKVX NSCLC, in the experiment on K-562 leukemia, in the experiment with SR leukemia, with SK-MEL-5 melanoma, in the experiment on HS 578T breast and with HT29 colon was greater than 100 µM in each case. For the same molecule, the TGI with A549 NSCLC is greater than 100 µM; with ACHN renal, greater than 100 µM; with OVCAR-3 ovarian, greater than 95 µM.

Consider `CC(C)(C)C(=O)CP(=O)(O)O`, for which the TGI in the experiment with EKVX NSCLC, in the experiment on K-562 leukemia, in the experiment on SR leukemia, with SK-MEL-5 melanoma, in the experiment on HS 578T breast and in the experiment with HT29 colon was greater than 100 µM in each case. Also, the TGI with A549 NSCLC, in the experiment on ACHN renal and in the experiment on OVCAR-3 ovarian was greater than 100 µM in each case.

Turning to `C[N+]1(Cc2ccc(Cl)c(Cl)c2)CCCC1C1CCCN(Cc2ccc(Cl)c(Cl)c2)C1` (stereo unspecified), the TGI in the experiment with EKVX NSCLC, in the experiment on K-562 leukemia, in the experiment with SR leukemia, in the experiment with SK-MEL-5 melanoma, with HS 578T breast and with HT29 colon was greater than 100 µM each time. The TGI in the experiment on A549 NSCLC, with ACHN renal and in the experiment with OVCAR-3 ovarian was greater than 100 µM each time.

On to `COc1ccc(C2=NN(C(N)=S)C(c3ccccc3)C2)cc1` (stereo unspecified), for which the TGI with EKVX NSCLC was greater than 100 µM; with K-562 leukemia it was greater than 100 µM; in the experiment on SR leukemia it was 77.3 µM; in the experiment with SK-MEL-5 melanoma, 32.3 µM; in the experiment with HS 578T breast, greater than 100 µM; with HT29 colon, greater than 100 µM. The TGI in the experiment with A549 NSCLC, in the experiment on ACHN renal and in the experiment on OVCAR-3 ovarian was greater than 100 µM throughout.

As to `C/C=C(\C)C(=O)OC1C(C)=C2C(C1OC(=O)CCCC)C(C)(OC(C)=O)CC(OC(=O)CCCC)C1(O)C2OC(=O)C1(C)O` (stereo unspecified), the total growth inhibition concentration (TGI) is greater than 100 µM in the experiment with EKVX NSCLC; greater than 100 µM with K-562 leukemia; greater than 81 µM with SR leukemia; greater than 100 µM in the experiment with HS 578T breast; 9.72 µM in the experiment on HT29 colon; greater than 100 µM in the experiment with A549 NSCLC. In addition, the TGI with ACHN renal is greater than 100 µM; in the experiment with OVCAR-3 ovarian, 2.62 µM.

As to `Nc1ccc(CCSSCCc2ccc(N)cc2)cc1`, the concentration for total growth inhibition (TGI) was greater than 100 µM in the experiment on EKVX NSCLC; greater than 62.3 µM with K-562 leukemia; 31.6 µM in the experiment on SR leukemia; greater than 52.7 µM with SK-MEL-5 melanoma; 66.4 µM in the experiment on HS 578T breast; 49.7 µM in the experiment with HT29 colon. The TGI in the experiment with A549 NSCLC was greater than 100 µM; in the experiment on ACHN renal it was greater than 93.2 µM; with OVCAR-3 ovarian, greater than 88.4 µM.

On to `COc1ccc(N2C(=O)C(C)SC2c2cc3cc(Br)ccc3nc2Cl)cc1` (stereo unspecified), for which the TGI was 98.5 µM in the experiment on EKVX NSCLC; greater than 100 µM in the experiment on K-562 leukemia; 72.3 µM in the experiment on SR leukemia; greater than 100 µM in the experiment on SK-MEL-5 melanoma; greater than 100 µM in the experiment with HS 578T breast; greater than 100 µM with HT29 colon. For the same molecule, the concentration for total growth inhibition (TGI) in the experiment on A549 NSCLC, in the experiment on ACHN renal and in the experiment on OVCAR-3 ovarian was greater than 100 µM in each case.

As for `OC(c1cc(-c2ccc(Cl)cc2)nc2ccccc12)C1CCCCN1` (stereo unspecified), the TGI in the experiment on EKVX NSCLC turned out to be 4.74 µM; with K-562 leukemia it was 3.13 µM; in the experiment with SK-MEL-5 melanoma, 5.9 µM; in the experiment on HS 578T breast, 4.34 µM; with HT29 colon it was 3.82 µM; with A549 NSCLC, 3.53 µM. Also, the TGI in the experiment with ACHN renal turned out to be 4.1 µM; with OVCAR-3 ovarian it was 3.98 µM.

For the molecule `Cc1ccc(/C=C2\CN(C)CC3C2=NN(c2ccccc2)C3c2ccc(C)cc2)cc1` (stereo unspecified), the TGI with EKVX NSCLC, with K-562 leukemia, with SK-MEL-5 melanoma, in the experiment on HS 578T breast, in the experiment with HT29 colon and in the experiment on A549 NSCLC was greater than 100 µM each time. Further, the concentration for total growth inhibition (TGI) with ACHN renal and in the experiment on OVCAR-3 ovarian was greater than 100 µM in each case.

As for `O=C(O)NCC1CCCCC1` (tested in a mixture with another compound), the TGI is greater than 100 µM in the experiment on EKVX NSCLC; 35.9 µM in the experiment with K-562 leukemia; 72 µM in the experiment with SR leukemia; 28.7 µM in the experiment on SK-MEL-5 melanoma; 66.6 µM with HT29 colon; greater than 100 µM in the experiment on A549 NSCLC. In addition, the figures for the TGI with ACHN renal and with OVCAR-3 ovarian were 48.1 µM and 19.8 µM, respectively.

As for `N#Cc1cc(-c2nc3c(F)cccc3s2)ccc1N`, the TGI in the experiment with EKVX NSCLC is 0.894 µM; with K-562 leukemia, greater than 100 µM; in the experiment on SK-MEL-5 melanoma it was greater than 100 µM; in the experiment on HS 578T breast, greater than 100 µM; in the experiment with HT29 colon it was greater than 100 µM; in the experiment on A549 NSCLC it was greater than 100 µM. The TGI in the experiment on ACHN renal and with OVCAR-3 ovarian was greater than 100 µM each time.

For the molecule `CC1(c2cccc(Cl)c2)CC(c2cccc(Cl)c2)=C(C#N)C(=C(C#N)C#N)N1` (stereo unspecified), the TGI in the experiment with EKVX NSCLC is 46.5 µM; with K-562 leukemia, greater than 100 µM; with SR leukemia, 65.3 µM; in the experiment on SK-MEL-5 melanoma, 28.6 µM; in the experiment on HS 578T breast, 34.1 µM; in the experiment on HT29 colon it was 91.2 µM. The TGI in the experiment on A549 NSCLC worked out at 42.1 µM; in the experiment on ACHN renal, 31.9 µM; in the experiment on OVCAR-3 ovarian, 23 µM.

Turning to `Cc1cc2nc(N3C(=O)/C(=C/c4ccccc4S)N=C3c3ccccc3)sc2cc1C`, the TGI in the experiment with EKVX NSCLC is greater than 100 µM; in the experiment on K-562 leukemia it was greater than 100 µM; in the experiment on SR leukemia it was greater than 100 µM; in the experiment on SK-MEL-5 melanoma, greater than 100 µM; in the experiment on HS 578T breast it was greater than 100 µM; with HT29 colon, 76.7 µM. Further, the TGI in the experiment with A549 NSCLC, in the experiment with ACHN renal and in the experiment on OVCAR-3 ovarian was greater than 100 µM in each case.

Consider `C=CC[C@@]1([C@H](C=C)COCc2ccc(OC)cc2)CC[C@]2(C)OC(C)(C)[C@@H](c3ccccc3)N2C1=S`, for which the TGI in the experiment with EKVX NSCLC is greater than 100 µM; with K-562 leukemia, greater than 100 µM; in the experiment on SR leukemia, greater than 100 µM; in the experiment with SK-MEL-5 melanoma, 61.8 µM; in the experiment with HS 578T breast, greater than 100 µM; in the experiment on HT29 colon, greater than 100 µM. For the same molecule, the TGI with A549 NSCLC, in the experiment on ACHN renal and with OVCAR-3 ovarian was greater than 100 µM each time.

`COC(=O)c1cc2cc3c(c(O)c2c(=O)o1)O[C@@]1(Oc2c(O)c4c(c(O)c2[C@H]1OC1CC(OC)C(O)C(C)O1)C(=O)C=C(OC)C4=O)[C@H](O)C3` (stereo partly specified): the TGI was 12.3 µM in the experiment with EKVX NSCLC; 8.82 µM in the experiment on K-562 leukemia; 4.76 µM in the experiment with SR leukemia; greater than 20.3 µM in the experiment with HT29 colon; 9.19 µM with ACHN renal; greater than 23.4 µM with OVCAR-3 ovarian.

`CC(NC(=O)C(Cc1ccc(OCC[N+](C)(C)C)cc1)NC(=O)OC(C)(C)C)C(=O)NC(Cc1ccccc1)C(=O)NCC(N)=O` (stereo unspecified) (Boc-Y(Ethyl(2-NMe3+))AFG-NH2; configuration not given here): the TGI with K-562 leukemia was greater than 100 µM; with SK-MEL-5 melanoma, greater than 100 µM; in the experiment with HS 578T breast, 83 µM; with HT29 colon it was greater than 100 µM; in the experiment with A549 NSCLC, greater than 100 µM; with ACHN renal, greater than 100 µM. Also, the TGI in the experiment with OVCAR-3 ovarian is 60.3 µM.
